Laboratory results reported in PubChem BioAssay (NCI).
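Five compound concentrations were applied to cells in 96-well plates for 48 hours; endpoints were derived by simple linear interpolation of the resulting dose-response curve. GI50: concentration for 50% inhibition of growth. At the TGI there is no net growth.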

Legend:
Test in all cases: DTP human tumour cell line panel, 48 h
786-0 renal = test system: 786-0 renal
A498 renal = test system: A498 renal
A549 NSCLC = test system: A549 NSCLC
ACHN renal = test system: ACHN renal
BT-549 breast = test system: BT-549 breast
CAKI-1 renal = test system: CAKI-1 renal
CCRF-CEM leukemia = test system: CCRF-CEM leukemia
COLO 205 colon = test system: COLO 205 colon
DU-145 prostate = test system: DU-145 prostate
EKVX NSCLC = test system: EKVX NSCLC
HCC-2998 colon = test system: HCC-2998 colon
HCT-116 colon = test system: HCT-116 colon
HCT-15 colon = test system: HCT-15 colon
HL-60(TB) leukemia = test system: HL-60(TB) leukemia
HOP-92 NSCLC = test system: HOP-92 NSCLC
HS 578T breast = test system: HS 578T breast
HT29 colon = test system: HT29 colon
IGROV1 ovarian = test system: IGROV1 ovarian
K-562 leukemia = test system: K-562 leukemia
KM12 colon = test system: KM12 colon
LOX IMVI melanoma = test system: LOX IMVI melanoma
M14 melanoma = test system: M14 melanoma
MALME-3M melanoma = test system: MALME-3M melanoma
MCF7 breast = test system: MCF7 breast
MDA-MB-231 breast = test system: MDA-MB-231 breast
MDA-MB-435 = test system: MDA-MB-435
MOLT-4 leukemia = test system: MOLT-4 leukemia
NCI-H23 lung = test system: NCI-H23 lung
NCI-H460 lung = test system: NCI-H460 lung
NCI-H522 lung = test system: NCI-H522 lung
NCI/ADR-RES ovarian = test system: NCI/ADR-RES ovarian
OVCAR-3 ovarian = test system: OVCAR-3 ovarian
OVCAR-4 ovarian = test system: OVCAR-4 ovarian
OVCAR-5 ovarian = test system: OVCAR-5 ovarian
OVCAR-8 ovarian = test system: OVCAR-8 ovarian
PC-3 prostate = test system: PC-3 prostate
RPMI-8226 leukemia = test system: RPMI-8226 leukemia
RXF 393 renal = test system: RXF 393 renal
SF-268 CNS = test system: SF-268 CNS
SF-295 CNS = test system: SF-295 CNS
SF-539 CNS = test system: SF-539 CNS
SK-MEL-2 melanoma = test system: SK-MEL-2 melanoma
SK-MEL-28 melanoma = test system: SK-MEL-28 melanoma
SK-MEL-5 melanoma = test system: SK-MEL-5 melanoma
SK-OV-3 ovarian = test system: SK-OV-3 ovarian
SN12C renal = test system: SN12C renal
SNB-19 CNS = test system: SNB-19 CNS
SNB-75 CNS = test system: SNB-75 CNS
SR leukemia = test system: SR leukemia
SW-620 colon = test system: SW-620 colon
TK-10 renal = test system: TK-10 renal
U251 CNS = test system: U251 CNS
UACC-257 melanoma = test system: UACC-257 melanoma
UACC-62 melanoma = test system: UACC-62 melanoma
UO-31 renal = test system: UO-31 renal
HOP-62 NSCLC = test system: HOP-62 NSCLC
NCI-H226 lung = test system: NCI-H226 lung
T-47D breast = test system: T-47D breast

Molecule `Cc1ccc(-c2nc([P+](c3ccccc3)(c3ccccc3)c3ccccc3)c(Nc3ccccc3)o2)cc1` has a GI50 (786-0 renal) of 1.18 µM, a TGI (786-0 renal) of 2.57 µM and a GI50 (A498 renal) of 1.12 µM. The TGI (A498 renal) was 2.46 µM, the GI50 (A549 NSCLC) was 1.15 µM and the TGI (A549 NSCLC) was 2.87 µM. The GI50 (ACHN renal) was 1.04 µM, the TGI (ACHN renal) was 2.22 µM and the GI50 (BT-549 breast) was 1.53 µM. For the same molecule, the TGI (BT-549 breast) was 3.02 µM, the GI50 (CAKI-1 renal) was 1.08 µM and the TGI (CAKI-1 renal) was 2.34 µM. For the same molecule, the GI50 (CCRF-CEM leukemia) was 0.445 µM, the TGI (CCRF-CEM leukemia) was 2.28 µM and the GI50 (COLO 205 colon) was 0.995 µM. For the same molecule, the TGI (COLO 205 colon) was 2.78 µM, the GI50 (DU-145 prostate) was 1.2 µM and the TGI (DU-145 prostate) was 2.48 µM. The GI50 (EKVX NSCLC) was 0.815 µM, the TGI (EKVX NSCLC) was 2.18 µM and the GI50 (HCC-2998 colon) was 0.659 µM. For the same molecule, the TGI (HCC-2998 colon) was 2.02 µM, the GI50 (HCT-116 colon) was 0.265 µM and the TGI (HCT-116 colon) was 1.22 µM. For the same molecule, the GI50 (HCT-15 colon) was 0.487 µM, the TGI (HCT-15 colon) was 1.81 µM and the GI50 (HL-60(TB) leukemia) was 0.395 µM. It also gave a TGI (HL-60(TB) leukemia) of 1.3 µM, a GI50 (HOP-92 NSCLC) of 0.188 µM and a TGI (HOP-92 NSCLC) of 1.16 µM. For the same molecule, the GI50 (HS 578T breast) was 1.27 µM, the TGI (HS 578T breast) was 3.31 µM and the GI50 (HT29 colon) was 0.344 µM. The TGI (HT29 colon) was 1.45 µM, the GI50 (IGROV1 ovarian) was 0.708 µM and the TGI (IGROV1 ovarian) was 2.08 µM. It also gave a GI50 (K-562 leukemia) of 0.326 µM, a TGI (K-562 leukemia) of 1.27 µM and a GI50 (KM12 colon) of 0.519 µM. For the same molecule, the TGI (KM12 colon) was 1.83 µM, the GI50 (LOX IMVI melanoma) was 0.457 µM and the TGI (LOX IMVI melanoma) was 1.76 µM. For the same molecule, the GI50 (M14 melanoma) was 0.655 µM, the TGI (M14 melanoma) was 2.08 µM and the GI50 (MALME-3M melanoma) was 0.25 µM. It also gave a TGI (MALME-3M melanoma) of 0.801 µM, a GI50 (MCF7 breast) of 0.346 µM and a TGI (MCF7 breast) of 1.43 µM. It also gave a GI50 (MDA-MB-231 breast) of 0.728 µM, a TGI (MDA-MB-231 breast) of 2.09 µM and a GI50 (MDA-MB-435) of 0.457 µM. The TGI (MDA-MB-435) was 1.63 µM, the GI50 (MOLT-4 leukemia) was 0.477 µM and the TGI (MOLT-4 leukemia) was 2.06 µM. For the same molecule, the GI50 (NCI-H23 lung) was 0.344 µM, the TGI (NCI-H23 lung) was 1.28 µM and the GI50 (NCI-H460 lung) was 0.515 µM. It also gave a TGI (NCI-H460 lung) of 1.8 µM, a GI50 (NCI-H522 lung) of 0.259 µM and a TGI (NCI-H522 lung) of 1.15 µM. The GI50 (NCI/ADR-RES ovarian) was 1.11 µM, the TGI (NCI/ADR-RES ovarian) was 2.58 µM and the GI50 (OVCAR-3 ovarian) was 0.288 µM. For the same molecule, the TGI (OVCAR-3 ovarian) was 0.886 µM, the GI50 (OVCAR-4 ovarian) was 0.32 µM and the TGI (OVCAR-4 ovarian) was 1.26 µM. For the same molecule, the GI50 (OVCAR-5 ovarian) was 1.31 µM, the TGI (OVCAR-5 ovarian) was 2.68 µM and the GI50 (OVCAR-8 ovarian) was 1.05 µM. The TGI (OVCAR-8 ovarian) was 3.27 µM, the GI50 (PC-3 prostate) was 0.433 µM and the TGI (PC-3 prostate) was 1.83 µM. For the same molecule, the GI50 (RPMI-8226 leukemia) was 0.227 µM, the TGI (RPMI-8226 leukemia) was 0.739 µM and the GI50 (RXF 393 renal) was 0.926 µM. For the same molecule, the TGI (RXF 393 renal) was 2.34 µM, the GI50 (SF-268 CNS) was 1.15 µM and the TGI (SF-268 CNS) was 2.53 µM. For the same molecule, the GI50 (SF-295 CNS) was 1.14 µM, the TGI (SF-295 CNS) was 2.41 µM and the GI50 (SF-539 CNS) was 1.54 µM. It also gave a TGI (SF-539 CNS) of 2.91 µM, a GI50 (SK-MEL-2 melanoma) of 0.808 µM and a TGI (SK-MEL-2 melanoma) of 2.42 µM. For the same molecule, the GI50 (SK-MEL-28 melanoma) was 1.22 µM, the TGI (SK-MEL-28 melanoma) was 2.52 µM and the GI50 (SK-MEL-5 melanoma) was 0.406 µM. The TGI (SK-MEL-5 melanoma) was 1.48 µM, the GI50 (SK-OV-3 ovarian) was 1.44 µM and the TGI (SK-OV-3 ovarian) was 3.08 µM. For the same molecule, the GI50 (SN12C renal) was 0.541 µM, the TGI (SN12C renal) was 1.84 µM and the GI50 (SNB-19 CNS) was 1.16 µM. It also gave a TGI (SNB-19 CNS) of 2.41 µM, a GI50 (SNB-75 CNS) of 1.23 µM and a TGI (SNB-75 CNS) of 2.54 µM. The GI50 (SR leukemia) was 0.39 µM, the TGI (SR leukemia) was 2.32 µM and the GI50 (SW-620 colon) was 0.446 µM. It also gave a TGI (SW-620 colon) of 1.66 µM, a GI50 (TK-10 renal) of 1.27 µM and a TGI (TK-10 renal) of 2.78 µM. The GI50 (U251 CNS) was 0.585 µM, the TGI (U251 CNS) was 2.14 µM and the GI50 (UACC-257 melanoma) was 0.831 µM. For the same molecule, the TGI (UACC-257 melanoma) was 2.7 µM, the GI50 (UACC-62 melanoma) was 0.63 µM and the TGI (UACC-62 melanoma) was 1.93 µM. The GI50 (UO-31 renal) was 0.421 µM and the TGI (UO-31 renal) was 1.73 µM.

Work on `O=S(=O)(O)Oc1cc2c(c(OS(=O)(=O)O)c1)C[C@H](OS(=O)(=O)O)[C@@H](c1ccc(OS(=O)(=O)O)c(OS(=O)(=O)O)c1)O2` yielded a TGI (A549 NSCLC) greater than 100 µM, a TGI (ACHN renal) greater than 100 µM and a TGI (BT-549 breast) greater than 100 µM. It also gave a TGI (COLO 205 colon) greater than 100 µM, a TGI (EKVX NSCLC) greater than 100 µM and a TGI (HCT-15 colon) greater than 100 µM. The TGI (HOP-62 NSCLC) was greater than 100 µM, the TGI (HOP-92 NSCLC) was greater than 100 µM and the TGI (HS 578T breast) was greater than 100 µM. The TGI (HT29 colon) was greater than 100 µM, the TGI (IGROV1 ovarian) was greater than 100 µM and the TGI (LOX IMVI melanoma) was greater than 100 µM. It also gave a TGI (M14 melanoma) greater than 100 µM, a TGI (MALME-3M melanoma) greater than 100 µM and a TGI (MCF7 breast) greater than 100 µM. It also gave a TGI (MDA-MB-231 breast) greater than 100 µM, a TGI (MOLT-4 leukemia) greater than 100 µM and a TGI (NCI-H226 lung) greater than 100 µM. It also gave a TGI (NCI-H460 lung) greater than 100 µM, a TGI (NCI-H522 lung) greater than 100 µM and a TGI (NCI/ADR-RES ovarian) greater than 100 µM. For the same molecule, the TGI (OVCAR-3 ovarian) was greater than 100 µM, the TGI (OVCAR-4 ovarian) was greater than 100 µM and the TGI (OVCAR-5 ovarian) was greater than 100 µM. It also gave a TGI (OVCAR-8 ovarian) greater than 100 µM, a TGI (PC-3 prostate) greater than 100 µM and a TGI (SF-268 CNS) greater than 100 µM. The TGI (SF-295 CNS) was greater than 100 µM, the TGI (SK-MEL-2 melanoma) was greater than 100 µM and the TGI (SK-MEL-5 melanoma) was greater than 100 µM. The TGI (SK-OV-3 ovarian) was greater than 100 µM, the TGI (SN12C renal) was greater than 100 µM and the TGI (SNB-19 CNS) was greater than 100 µM. For the same molecule, the TGI (SNB-75 CNS) was greater than 100 µM, the TGI (SR leukemia) was greater than 100 µM and the TGI (SW-620 colon) was greater than 100 µM. It also gave a TGI (T-47D breast) greater than 100 µM, a TGI (UACC-257 melanoma) greater than 100 µM and a TGI (UACC-62 melanoma) greater than 100 µM. For the same molecule, the TGI (UO-31 renal) was greater than 100 µM.
